“Also recorded” adds a separate entry of the source.
Legend:
[1] = system: HL-60 cell line transfected with Bcl-2; test: DNA fragmentation assay in Bcl-2-transfected HL-60 cells; assay type: cell-based, human; conditions: for DNA fragmentation (reversal of Bcl-2 block of apoptosis): 50 μM, 24 hours
[2] = system: 697 cells; test: DNA fragmentation assay in 697 cells; assay type: cell-based, human; conditions: 50 μM, 48 hours
Description: The Bcl-transfected cells were incubated with Bcl-2 inhibitor test compounds at 50 μM for 24 hours and then examined for apoptosis by the following DNA fragmentation assay. Then the treated cells were washed in PBS, lysed in digestion buffer (100 mM NaCl, 10 mM Tris-Cl, pH8, 25 mM EDTA, pH 8, 0.5% SDS, 0.1 mg/ml proteinase K), and incubated overnight at 50° C. The samples were extracted three times with phenol-chloroform, precipitated with an equal volume isopropanol, and spun down for 15 minutes in a microcentrifuge at room temperature. The DNA precipitate was washed once with 70% ethanol and resuspended in TE buffer containing 200 μg/ml DNase-free RNase A (Boehringer Mannheim, Indianapolis, Ind.). Alter incubation at 37° C. for 30 min., the DNA was loaded into a 2% agarose mini-gel with 2 μg/ml ethidium bromide, and electrophoresis is run at 50 V for 2 hours in 0.5×TBE buffer. The gel was destained with water for 1 hour arid photographed under UV light.
First, the ethidium bromide stain concentration was 1 μg/ml instead of 2 μg/ml. Second, the cells for the assay comprised 697 cells. The 697 line is a human pre-B leukemia line with a t(1; 19) chromosomal translocation (no translocation involving Bcl-2). Bcl-2 is highly expressed in this line. The high expression of Bcl-2 in 697 cells was confirmed by protein immunoblot analysis (data not shown). […] DNA markers were phiX174 DNA with restriction endonuclease Hae III (Boehringer Mannheim, Indianapolis, Ind.). The cells were incubated with test compound at 50 μM concentration or Taxol at 5 μM concentration for 48 hours.

[3] = system: HL-60 neo line; test: Control apoptosis experiment in HL-60 neo line; assay type: cell-based, human; conditions: 50 μM
[4] = biological target: T1, Bcl-2 protein (Homo sapiens, UniProt P10415); test: Bcl-2 competition binding assay (fluorescence polarization, Flu-1193 probe); conditions: for concentration-dependent competition binding: increasing compound concentrations, HA14-1 1 to 100 μM
T1 construct: purified soluble Bcl-2 proteins purchased from Santa Cruz Biotechnology, Inc., Calif; purchased Santa Cruz Biotechnology, Inc

[5] = system: 697 cells; conditions: positive control; cited from earlier work
[6] = system: HL-60 cell line transfected with Bcl-2; conditions: 50 μM etoposide; cited from earlier work
[7] = system: HL-60 cell line (parent line); conditions: 50 μM etoposide; cited from earlier work

T1 sequence (P10415 1-205 limits assumed): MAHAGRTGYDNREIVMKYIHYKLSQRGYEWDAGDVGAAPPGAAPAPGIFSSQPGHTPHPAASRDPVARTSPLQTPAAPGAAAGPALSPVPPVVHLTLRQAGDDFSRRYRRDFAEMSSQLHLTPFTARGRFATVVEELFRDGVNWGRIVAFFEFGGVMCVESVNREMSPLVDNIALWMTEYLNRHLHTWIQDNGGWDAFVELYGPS

COc1cc(C2c3cc4c(cc3OC(N3CCOCC3)C2C)OCO4)cc(OC)c1O (stereo not shown) [HA11-57, 2,6-DI-MEO-4-(7-ME-6-MORPHOLIN-4-YL-6H- [1,3]DIOXOLO[4,5-G]CHROMEN-8-YL)-PHENOL]
DNA fragmentation (reversal of Bcl-2 block of apoptosis) [1]: DNA fragmentation is apparent

O=C1Nc2ccccc2/C1=C/c1ccc[nH]1 [HA12-16]
DNA fragmentation / apoptosis induction ([2]; listed as HA01): induced DNA fragmentation to various extents; also recorded: induced apoptosis in the 697 cells
apoptosis induction in cells not regulated by Bcl-2 [3]: lack of effect in inducing apoptosis

COC1OC2COC(c3ccccc3)O[C@H]2[C@@H](OC(C)=O)[C@H]1OS(=O)(=O)c1ccccc1 (stereo partly shown) [HA14]
DNA fragmentation (reversal of Bcl-2 block of apoptosis) [1]: DNA fragmentation is apparent

O=C1c2ccccc2SC(c2ccccc2)C1CN1CCN(C(C(=O)O)C(=O)O)CC1 (stereo not shown) [HA03]
concentration-dependent competition binding [4]: clear concentration-dependent competition binding was observed

CC(=O)c1cc(C(=O)c2ccccc2)n2ccc(Cc3ccc([N+](=O)[O-])cc3)cc12 [HA13]
DNA fragmentation (reversal of Bcl-2 block of apoptosis) [1]: DNA fragmentation is apparent

COc1ccc(CCNC(=O)c2sc3c([N+](=O)[O-])cc(C(F)(F)F)cc3[n+]2[O-])cc1OC [HA02]
concentration-dependent competition binding [4]: clear concentration-dependent competition binding was observed
Kd ([4]; read-out: binding affinity (KD)): 15 µM
DNA fragmentation / apoptosis induction [2]: induced DNA fragmentation to various extents

CCOC(=O)C1=C(N)Oc2ccc(Br)cc2C1C(C#N)C(=O)OCC (stereo not shown) [HA14-1, ETHYL 2-AMINO-6- BROMO-4-(1-CYANO-2- ETHOXY-2-OXOETHYL)- 4H-CHROMENE-3- CARBOXYLATE]
concentration-dependent competition binding [4]: clear concentration-dependent competition binding was observed
DNA fragmentation after fluoromethyl ketone pretreatment ([1]; 100 μM fluoromethyl ketone 2 hours, then 50 μM HA14-1 24 hours): neutralize the action of HA14-1

CC(=O)O[C@H]1C(=O)[C@@]2(C)[C@H]([C@H](OC(=O)c3ccccc3)[C@]3(O)C[C@H](OC(=O)[C@H](O)[C@@H](NC(=O)c4ccccc4)c4ccccc4)C(C)=C1C3(C)C)[C@]1(OC(C)=O)CO[C@@H]1C[C@@H]2O [Taxol]
apoptosis induction in 697 cells (known) [5]: known to induce apoptosis in 697 cells

COc1cc([C@@H]2c3cc4c(cc3[C@@H](O[C@@H]3O[C@@H]5CO[C@@H](C)O[C@H]5[C@H](O)[C@H]3O)[C@H]3COC(=O)[C@H]23)OCO4)cc(OC)c1O [etoposide]
sensitivity of Bcl-2-transfected cells to apoptosis-inducing drug [6]: resistant
sensitivity of cells to apoptosis-inducing drug [7]: sensitive

Nc1nc(N)c2c(Oc3ccccc3)cccc2n1 [HA04]
concentration-dependent competition binding [4]: clear concentration-dependent competition binding was observed
DNA fragmentation / apoptosis induction [2]: induced DNA fragmentation to various extents

— patent US6492389B1, “Small molecule inhibitors of BCL-2 proteins” (Thomas Jefferson University, priority 1998, dated 2002)
